According to patent US20250176599A1, “FLAVOR COMPOSITION AND FOOD AND BEVERAGE” (TAKASAGO INTERNATIONAL CORPORATION, priority 2021, published 2025):

Columns and labels:
[1] = Sensory evaluation of aqueous solution II containing (E)-2-octenal 10 ppb: off-flavor intensity and masking component intensity; settings: (E)-2-octenal 10 ppb, average score 0-4
In short: (§1)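 Eight trained panelists tasted water solutions of the off-flavor compounds spiked with nootkatone. Masking-agent taste was scored absolutely from 0 (not sensed) to 4 (strong). Off-flavor was scored relatively, anchored at 4 for the solution without masker and 0 for ion-exchanged water.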

[2] = Sensory evaluation of degradation component-added mayonnaise I (1-octen-3-ol 200 ppb); settings: average panel score
Method: (§2) To commercially available mayonnaise (“Kewpie Mayonnaise” manufactured by Kewpie Corporation), each degradation component was added to prepare degradation component-added mayonnaises I and II at the concentrations listed in Table 20. To these degradation component-added mayonnaises, oleic acid was added at the concentrations listed in Table 21 to confirm the intensity of the off-flavor (masking effect) and the intensity of the masking components (impact on the flavor of the mayonnaise itself) for each sample.
(§3) Six experienced panelists were selected to conduct a sensory evaluation similar to that of Example 1.

[3] = Sensory evaluation of aqueous solution I containing (E)-2-nonenal 1 ppb: off-flavor intensity and masking component intensity; settings: (E)-2-nonenal 1 ppb, average score 0-4
In short: as §1

[4] = Sensory evaluation of aqueous solution IV containing 1,5-octadien-3-one 100 ppt: off-flavor intensity and masking component intensity; settings: aqueous solution IV, 1,5-octadien-3-one 100 ppt, average score 0-4
In short: as §1

[5] = Sensory evaluation of aqueous solution VI containing 1,5-octadien-3-ol 10 ppb: off-flavor intensity and masking component intensity; settings: aqueous solution VI, 1,5-octadien-3-ol 10 ppb, average score 0-4
In short: as §1

[6] = Sensory evaluation of aqueous solution III containing 1-octen-3-one 1 ppb: off-flavor intensity and masking component intensity; settings: 1-octen-3-one 1 ppb, average score 0-4
In short: as §1

[7] = Overall conclusion of the sensory evaluation across aqueous solutions I to VI
In short: as §1

[8] = Sensory evaluation of aqueous solution V containing 1-octen-3-ol 10 ppb: off-flavor intensity and masking component intensity; settings: 1-octen-3-ol 10 ppb, average score 0-4
In short: as §1

[9] = Overall conclusion of the sensory evaluation across mayonnaises I and II
Method: as §2, §3

SMILES: CCCCCCCC/C=C\CCCCCCCC(=O)O [Oleic Acid, oleic acid]
- Off-Flavor Intensity ([1]; 1 ppm added): 1.6 points
- Off-Flavor Intensity ([1]; 5 ppm added): 1.1 points
- Off-Flavor Intensity ([1]; 10 ppb added): 2.8 points
- Off-Flavor Intensity ([1]; 10 ppm added): 1.1 points
- Off-Flavor Intensity ([1]; 50 ppb added): 2.5 points
- Off-Flavor Intensity ([1]; 100 ppb added): 1.9 points
- Off-Flavor Intensity ([1]; 500 ppb added): 1.5 points
- Masking Component Intensity ([2]; 1 ppm added): 0.3
- Off-Flavor Intensity ([2]; 1 ppm added): 1.8
- Masking Component Intensity ([2]; 5 ppm added): 0.7
- Off-Flavor Intensity ([2]; 5 ppm added): 1.7
- Masking Component Intensity ([2]; 10 ppm added): 0.8
- Off-Flavor Intensity ([2]; 10 ppm added): 1.2
- Masking Component Intensity ([2]; 50 ppm added): 1.7
- Off-Flavor Intensity ([2]; 50 ppm added): 0.8
- Masking Component Intensity ([2]; 100 ppb added): 0.0
- Off-Flavor Intensity ([2]; 100 ppb added): 3.3
- Masking Component Intensity ([2]; 100 ppm added): 2.2
- Off-Flavor Intensity ([2]; 100 ppm added): 0.5
- Masking Component Intensity ([2]; 500 ppb added): 0.2
- Off-Flavor Intensity ([2]; 500 ppb added): 2.5
- Off-Flavor Intensity ([3]; 1 ppm added): 1.8 points
- Off-Flavor Intensity ([3]; 5 ppm added): 1.4 points
- Off-Flavor Intensity ([3]; 10 ppb added): 3.5 points
- Off-Flavor Intensity ([3]; 10 ppm added): 1.3 points
- Off-Flavor Intensity ([3]; 50 ppb added): 3.1 points
- Off-Flavor Intensity ([3]; 100 ppb added): 2.8 points
- Off-Flavor Intensity ([3]; 500 ppb added): 2.4 points
- Off-Flavor Intensity ([4]; 1 ppm added): 2.0 points
- Off-Flavor Intensity ([4]; 5 ppm added): 1.9 points
- Off-Flavor Intensity ([4]; 10 ppb added): 3.4 points
- Off-Flavor Intensity ([4]; 10 ppm added): 1.5 points
- Off-Flavor Intensity ([4]; 50 ppb added): 3.3 points
- Off-Flavor Intensity ([4]; 100 ppb added): 2.9 points
- Off-Flavor Intensity ([4]; 500 ppb added): 2.5 points
- Off-Flavor Intensity ([5]; 1 ppm added): 1.3 points
- Off-Flavor Intensity ([5]; 5 ppm added): 1.5 points
- Off-Flavor Intensity ([5]; 10 ppb added): 2.6 points
- Off-Flavor Intensity ([5]; 10 ppm added): 1.3 points
- Off-Flavor Intensity ([5]; 50 ppb added): 2.4 points
- Off-Flavor Intensity ([5]; 100 ppb added): 1.9 points
- Off-Flavor Intensity ([5]; 500 ppb added): 1.6 points
- Off-Flavor Intensity ([6]; 1 ppm added): 2.8 points
- Off-Flavor Intensity ([6]; 5 ppm added): 2.4 points
- Off-Flavor Intensity ([6]; 10 ppb added): 3.5 points
- Off-Flavor Intensity ([6]; 10 ppm added): 1.9 points
- Off-Flavor Intensity ([6]; 50 ppb added): 3.4 points
- Off-Flavor Intensity ([6]; 100 ppb added): 3.3 points
- Off-Flavor Intensity ([6]; 500 ppb added): 2.5 points
- concentration that masks the off-flavor and does not affect the flavor of the food and/or beverage itself, lower limit [7]: ≥ 10 ppb
- concentration that masks the off-flavor and does not affect the flavor of the food and/or beverage itself, upper limit [7]: ≤ 10 ppm
- Off-Flavor Intensity ([8]; 1 ppm added): 1.9 points
- Off-Flavor Intensity ([8]; 5 ppm added): 1.8 points
- Off-Flavor Intensity ([8]; 10 ppb added): 3.4 points
- Off-Flavor Intensity ([8]; 10 ppm added): 1.1 points
- Off-Flavor Intensity ([8]; 50 ppb added): 2.6 points
- Off-Flavor Intensity ([8]; 100 ppb added): 2.9 points
- Off-Flavor Intensity ([8]; 500 ppb added): 2.3 points
- concentration that masks the off-flavor and does not affect the flavor of the mayonnaise itself, lower limit [9]: ≥ 500 ppb
- concentration that masks the off-flavor and does not affect the flavor of the mayonnaise itself, upper limit [9]: ≤ 100 ppm
